Data set [1] in a line: Rat Liver Microsome Stability Assay. The class given is in vitro ADME. Particulars: rat liver microsomes, 1 uM compound.
Data set [2] addresses OGA (S400 O-GLCNAC), HEK-293T cells transfected with Tau-V5 (Homo sapiens (Human), UniProt O60502). Put plainly: Cellular OGA-Tau MSD Assay. The format is cell-based. Particulars: HEK-293T cells, Tau-S400-GlcNAc MSD readout. The essentials:
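HEK-293T cells transfected with OGA and Tau-V5 plasmids were treated overnight at 37° C with a 10-point, 3-fold titration from 1 uM. Lysates went onto V5-antibody MSD plates to capture Tau, probed with a Tau O-GlcNAc antibody and read by electrochemiluminescence; IC50 from a 4-parameter fit.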

Data set [3] deals with Recombinant full length human OGA enzyme (Homo sapiens (Human), UniProt O60502). Put plainly: OGA Enzyme Inhibition Biochemical Assay. To be noted: 1 nM OGA, 100 μM 4-MUGlcNAc, pH 6.4. The essentials:
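Full-length recombinant human OGA with fluorogenic 4-MUGlcNAc in McIlvaine buffer pH 6.4, 0.01% BSA; 90 min at room temperature, glycine pH 10 quench, fluorescence Ex 355/Em 460 nm. 10-point, 4-fold dilution from 20 μM; 4-parameter variable-slope fit.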

The test system of a further data set is P-gp (MDR1). Put plainly: MDR1-MDCK Efflux Ratio Assay. The format is in vitro ADME. Particulars: dog, MDCK-MDR1, pH 7.4, MDR1-MDCK cells, 2 hr, pH 7.4; read-out: MDR1-MDCK Efflux Ratio (B-A/A-B). The essentials: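 Bidirectional (apical↔basolateral) transport across confluent MDR1-MDCK monolayers in HBSS/10 mM HEPES pH 7.4, receiver buffer with 1% BSA; 2 hr at 37° C, 5% CO2. Donor sampled at 0 and 120 min, receiver at 120 min, quantified by LC-MS/MS in triplicate. Papp, efflux ratio and percent recovery calculated.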

Sequence of OGA (S400 O-GLCNAC), HEK-293T cells transfected with Tau-V5 (O60502 whole entry): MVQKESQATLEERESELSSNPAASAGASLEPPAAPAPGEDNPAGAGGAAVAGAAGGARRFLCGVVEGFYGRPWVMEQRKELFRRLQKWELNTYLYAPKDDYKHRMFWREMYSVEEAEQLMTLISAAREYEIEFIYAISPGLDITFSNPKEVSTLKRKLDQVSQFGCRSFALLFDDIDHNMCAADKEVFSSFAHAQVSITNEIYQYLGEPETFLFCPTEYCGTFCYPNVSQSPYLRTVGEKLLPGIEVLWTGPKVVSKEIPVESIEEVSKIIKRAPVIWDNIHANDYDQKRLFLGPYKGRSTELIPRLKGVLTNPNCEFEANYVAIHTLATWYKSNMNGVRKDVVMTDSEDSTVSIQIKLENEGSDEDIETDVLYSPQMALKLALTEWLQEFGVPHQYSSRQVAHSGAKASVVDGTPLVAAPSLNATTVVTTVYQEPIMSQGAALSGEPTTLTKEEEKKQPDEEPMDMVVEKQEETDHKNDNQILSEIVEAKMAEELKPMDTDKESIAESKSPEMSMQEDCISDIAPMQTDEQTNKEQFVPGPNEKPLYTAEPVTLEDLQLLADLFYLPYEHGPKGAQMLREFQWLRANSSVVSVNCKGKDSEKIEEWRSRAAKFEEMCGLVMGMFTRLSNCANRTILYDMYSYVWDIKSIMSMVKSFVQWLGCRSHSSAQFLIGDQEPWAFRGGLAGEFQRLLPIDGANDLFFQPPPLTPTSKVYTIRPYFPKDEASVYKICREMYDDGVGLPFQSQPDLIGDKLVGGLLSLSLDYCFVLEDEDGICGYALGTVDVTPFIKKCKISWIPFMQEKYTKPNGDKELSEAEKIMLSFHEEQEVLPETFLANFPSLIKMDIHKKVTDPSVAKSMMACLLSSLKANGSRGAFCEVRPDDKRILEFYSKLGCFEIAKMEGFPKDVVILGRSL
Sequence of Recombinant full length human OGA enzyme (O60502 whole entry): as above

Turning to `CC(=O)Nc1nc(F)c(CN2C[C@H](Oc3cc(C)nc(C)c3)C[C@@H]2C)s1` [Example 1-50, N-(5-(((2S,4R)-4-((2,6-dimethylpyridin-4-yl)oxy)-2-methylpyrrolidin-1-yl)methyl)-4-fluorothiazol-2-yl)acetamide], the “RLM % Qh (%)” value in data set [1] was 47%. Further, the IC50 in data set [2] is 1 nM; in data set [3], below 1 nM. The efflux ratio at 2 h with P-gp (MDR1) came out at 22.4.

For `CC(=O)Nc1nc(F)c(CN2C[C@@H](Oc3cc(C)nc(C)c3)C[C@@H]2C)s1` [Example 1-52, N-(5-(((2S,4S)-4-((2,6-dimethylpyridin-4-yl)oxy)-2-methylpyrrolidin-1-yl)methyl)-4-fluorothiazol-2-yl)acetamide], the “RLM % Qh (%)” value in data set [1] is 76%. In addition, the IC50 in data set [2] came to 55 nM; in data set [3], 33 nM. Also, in the data set on P-gp (MDR1), the efflux ratio at 2 h turned out to be 12.9.

In the case of `CC(=O)Nc1nc(F)c(CN2C[C@@H](Oc3cc(C)nc(C)c3)C[C@H]2C)s1` [Example 1-53, N-(5-(((2R,4S)-4-((2,6-dimethylpyridin-4-yl)oxy)-2-methylpyrrolidin-1-yl)methyl)-4-fluorothiazol-2-yl)acetamide], the “RLM % Qh (%)” value in data set [1] was found to be 26%. Further, the IC50 is above 1000 nM in data set [2] and 1700 nM in data set [3]. Moreover, the efflux ratio at 2 h in the data set on P-gp (MDR1) is 21.8.

Consider `CC(=O)Nc1nc(F)c(CN2CCC[C@H](Oc3cc(C)nc(C)c3)C2)s1` [Example 1-54, (S)—N-(5-((3-((2,6-dimethylpyridin-4-yl)oxy)piperidin-1-yl)methyl)-4-fluorothiazol-2-yl)acetamide], for which the “RLM % Qh (%)” value in data set [1] came to 78%. The IC50 was 70 nM in data set [2] and 11 nM in data set [3]. Further, in the data set with P-gp (MDR1), the efflux ratio at 2 h turned out to be 25.4.

`CC(=O)Nc1nc(F)c(CN2CCC[C@@H](Oc3cc(C)nc(C)c3)C2)s1` [Example 1-55, (R)—N-(5-((3-((2,6-dimethylpyridin-4-yl)oxy)piperidin-1-yl)methyl)-4-fluorothiazol-2-yl)acetamide]: the “RLM % Qh (%)” value in data set [1] turned out to be 85%. The IC50 was determined as 13 nM in data set [2] and 1.1 nM in data set [3]. Also, the efflux ratio at 2 h in the data set on P-gp (MDR1) was found to be 19.

With `CC(=O)Nc1nc(F)c(CN2C[C@H](Oc3cc(C)nc(C)c3)CC[C@@H]2C)s1` [Example 1-57, N-(5-(((2S,5R)-5-((2,6-dimethylpyridin-4-yl)oxy)-2-methylpiperidin-1-yl)methyl)-4-fluorothiazol-2-yl)acetamide], the “RLM % Qh (%)” value in data set [1] came out at 93%. For the same compound, the half-inhibitory concentration (IC50) is 3 nM in data set [2] and below 1 nM in data set [3]. Besides, the efflux ratio at 2 h in the data set with P-gp (MDR1) was 26.4.

As to `CC(=O)Nc1ncc(CN2CC[C@H](Oc3cc(C)nc(C)c3)C2)s1` [Example 1-58, (S)—N-(5-((3-((2,6-dimethylpyridin-4-yl)oxy)pyrrolidin-1-yl)methyl)thiazol-2-yl)acetamide], in data set [1], the “RLM % Qh (%)” value is given as 16%. Besides, the IC50 in data set [2] is above 1000 nM; in data set [3], 520 nM. The efflux ratio at 2 h in the data set with P-gp (MDR1) was 28.5.

Regarding `CC(=O)Nc1ncc(CN2CC[C@@H](Oc3cc(C)nc(C)c3)C2)s1` [Example 1-59, (R)—N-(5-((3-((2,6-dimethylpyridin-4-yl)oxy)pyrrolidin-1-yl)methyl)thiazol-2-yl)acetamide], the “RLM % Qh (%)” value in data set [1] turned out to be 55%. Moreover, the IC50 in data set [2] stood at 8 nM; in data set [3], 1.9 nM. Also, the efflux ratio at 2 h with P-gp (MDR1) is 22.2.

Regarding `CC(=O)Nc1ncc(CN2C[C@H](Oc3cc(C)nc(C)c3)C[C@@H]2C)s1` [Example 1-60, N-(5-(((2S,4R)-4-((2,6-dimethylpyridin-4-yl)oxy)-2-methylpyrrolidin-1-yl)methyl)thiazol-2-yl)acetamide], the “RLM % Qh (%)” value in data set [1] is recorded as 56%. Besides, the results for the IC50 in data set [2] and in data set [3] were 1 nM and below 1 nM, respectively. The efflux ratio at 2 h in the data set with P-gp (MDR1) turned out to be 21.3.

The record behind these values is patent US20240308995A1, “O-GLYCOPROTEIN-2-ACETAMIDO-2-DEOXY-3-D-GLUCOPYRANOSIDASE INHIBITORS” (BIOGEN MA INC., priority 2018, published 2024).
